# Laboratory results reported in patent publication US11053218B2, “3-(1-oxoisoindolin-2-yl)piperidine-2,6-dione derivatives and uses thereof” (Novartis AG, priority 2017, dated 2021).
# What was measured:
# Format in all cases: cell-based
# IKZF1 = IKZF1 (Homo sapiens, UniProt Q13422+Q96SW2); experiment: Prolabel quantification of IKZF1 protein levels in 293GT cells; conditions: Prolabel assay, read-out: IKZF1 EC50
# GSPT1 = GSPT1 (Homo sapiens, UniProt P15170+Q96SW2); experiment: Prolabel quantification of GSPT1 protein levels in 293GT cells; conditions: Prolabel assay, read-out: GSPT1 EC50
# GSPT1, sequence (P15170 whole entry, the tested form may be a part): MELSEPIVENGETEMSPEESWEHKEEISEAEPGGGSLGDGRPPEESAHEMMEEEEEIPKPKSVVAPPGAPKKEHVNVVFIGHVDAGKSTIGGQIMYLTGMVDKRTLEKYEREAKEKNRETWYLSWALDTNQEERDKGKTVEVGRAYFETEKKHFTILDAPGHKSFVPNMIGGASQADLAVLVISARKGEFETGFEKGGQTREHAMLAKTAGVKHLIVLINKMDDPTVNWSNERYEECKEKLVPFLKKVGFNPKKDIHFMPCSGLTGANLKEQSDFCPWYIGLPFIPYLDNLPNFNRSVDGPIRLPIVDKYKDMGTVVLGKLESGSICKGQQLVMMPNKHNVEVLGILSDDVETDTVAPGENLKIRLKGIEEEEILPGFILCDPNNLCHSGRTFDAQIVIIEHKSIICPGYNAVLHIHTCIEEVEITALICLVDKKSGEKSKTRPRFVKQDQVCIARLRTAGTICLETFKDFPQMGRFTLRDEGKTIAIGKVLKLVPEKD
# GSPT1, sequence (Q96SW2 whole entry, the tested form may be a part): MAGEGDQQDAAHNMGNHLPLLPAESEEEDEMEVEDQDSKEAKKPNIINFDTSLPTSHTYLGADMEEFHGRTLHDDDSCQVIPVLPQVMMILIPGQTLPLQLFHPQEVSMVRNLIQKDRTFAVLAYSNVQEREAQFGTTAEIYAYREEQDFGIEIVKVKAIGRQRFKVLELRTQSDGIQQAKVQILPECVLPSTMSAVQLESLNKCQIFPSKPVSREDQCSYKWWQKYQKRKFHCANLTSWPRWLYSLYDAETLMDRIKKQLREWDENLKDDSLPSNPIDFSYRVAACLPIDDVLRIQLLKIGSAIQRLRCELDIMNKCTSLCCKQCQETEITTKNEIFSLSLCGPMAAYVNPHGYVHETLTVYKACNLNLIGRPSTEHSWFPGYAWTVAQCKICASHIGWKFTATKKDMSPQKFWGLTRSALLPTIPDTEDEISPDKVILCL
# GSPT1, sequence (Q16531 whole entry partner, the tested form may be a part): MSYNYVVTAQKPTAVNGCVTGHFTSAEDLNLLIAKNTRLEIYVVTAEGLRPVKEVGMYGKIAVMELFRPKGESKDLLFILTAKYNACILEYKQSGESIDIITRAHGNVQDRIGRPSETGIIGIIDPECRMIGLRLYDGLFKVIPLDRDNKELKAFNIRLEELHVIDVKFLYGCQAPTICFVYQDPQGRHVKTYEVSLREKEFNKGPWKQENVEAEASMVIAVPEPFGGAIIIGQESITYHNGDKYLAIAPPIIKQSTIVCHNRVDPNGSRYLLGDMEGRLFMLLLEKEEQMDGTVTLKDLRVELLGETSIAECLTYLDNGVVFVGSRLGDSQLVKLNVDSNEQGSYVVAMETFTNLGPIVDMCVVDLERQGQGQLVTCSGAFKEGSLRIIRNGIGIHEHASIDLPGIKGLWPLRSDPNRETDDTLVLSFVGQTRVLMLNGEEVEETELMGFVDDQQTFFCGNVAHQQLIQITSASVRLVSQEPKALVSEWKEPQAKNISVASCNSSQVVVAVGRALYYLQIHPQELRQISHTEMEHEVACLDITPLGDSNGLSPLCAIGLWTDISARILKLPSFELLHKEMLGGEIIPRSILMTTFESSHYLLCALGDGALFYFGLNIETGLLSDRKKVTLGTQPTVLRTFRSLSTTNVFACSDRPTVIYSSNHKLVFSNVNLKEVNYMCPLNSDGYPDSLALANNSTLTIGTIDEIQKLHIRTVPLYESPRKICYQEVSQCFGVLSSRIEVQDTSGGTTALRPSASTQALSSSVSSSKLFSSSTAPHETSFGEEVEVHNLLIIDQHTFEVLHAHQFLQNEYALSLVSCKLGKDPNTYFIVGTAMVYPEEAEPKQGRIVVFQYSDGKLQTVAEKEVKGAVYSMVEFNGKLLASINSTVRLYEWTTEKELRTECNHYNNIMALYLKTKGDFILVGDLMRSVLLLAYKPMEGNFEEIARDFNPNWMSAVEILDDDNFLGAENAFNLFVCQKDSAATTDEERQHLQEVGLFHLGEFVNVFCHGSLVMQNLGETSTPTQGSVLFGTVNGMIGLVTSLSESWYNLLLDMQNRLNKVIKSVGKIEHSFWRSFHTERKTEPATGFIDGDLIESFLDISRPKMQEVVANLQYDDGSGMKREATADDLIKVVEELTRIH
# Experimental: The Prolabel system from DiscoverX was used to develop high-throughput and quantitative assays to measure changes in IKZF1, IKZF2 and GSPT1 protein levels in response to compounds. The prolabel tag was derived from the alpha fragment of beta galactosidase and has the following protein sequence: mssnslavvlqrrdwenpgvtqlnrlaahppfaswrnseeartdrpsqqlrslnge. The complementary fragment of beta-galactosidase (from DiscoverX), is added to the prolabel tag to form an active beta galactosidase enzyme whose activity can be precisely measured. In this way, the levels of a fusion protein with the prolabel tag can be quantified in cell lysates.
# Lentiviral vectors, based on the Invitrogen pLenti6.2/V5 DEST backbone, were constructed that placed the prolabel tag upstream of IKZF1, IKZF2 or GSPT1 and expressed the fusion protein from a CMV promoter.
# To ensure moderate and consistent expression of the prolabel fusion proteins across all cells in the population, stable cell lines were constructed from cells expressing a single copy of the construct. Lentivirus packaged with the constructs was made using the Virapower kit from Invitrogen.
# The levels of prolabel tagged fusion proteins in compound treated cell lines were measured as follows:
# Day 1, Cells were diluted to 1.0×10^6 cells/ml in normal growth medium. 17.5 μL of cells were plated in each well of a solid white 384 well plate. Plates were incubated overnight in a 37° C. tissue culture incubator.
# Day 2, Serial dilutions of compounds were made in 384 well plates from 10 mM stocks. 15 μL of DMSO was added to each well of a 384 well plate. In the first column 15 μL of stock compound was added. The solution was mixed and 15 μL was transferred to the next column. This was repeated until 20 two-fold dilutions were prepared. 2.5 μL of diluted compounds were transferred into 60 μL of cell culture medium in another 384 well plate, and mixed well. 2.5 μL of this mixture was added to the plated cells. The final DMSO concentration was 0.5% and the highest concentration of compound was 50 μM. Plates were incubated overnight (e.g., about 14 h, 18 h, or 24 h) in a 37° C. tissue culture incubator.
# Day 3, Plates were removed from the incubator and allowed to equilibrate at rt for 30 minutes. Prolabel substrate (DiscoverX PathHunter Prolabel Detection Kit, User manual: 93-0180) was added as described by the manufacturers protocols. Plates were incubated at rt for three hours and luminescence was read using an Envision reader (Perkin Elmer) Data was analyzed and visualized using the Spotfire software package.
# IKZF2 = IKZF2 (Homo sapiens, UniProt Q96SW2+Q9UKS7); experiment: Prolabel quantification of IKZF2 protein levels in 293GT cells; conditions: 293GT cells; for inhibition at 10 µM: 24 h, read-out: IKZF2 % protein reduction at 10 μM, 24 h; for DC50: Prolabel assay, read-out: IKZF2 EC50
# IKZF2, sequence (Q9UKS7 whole entry): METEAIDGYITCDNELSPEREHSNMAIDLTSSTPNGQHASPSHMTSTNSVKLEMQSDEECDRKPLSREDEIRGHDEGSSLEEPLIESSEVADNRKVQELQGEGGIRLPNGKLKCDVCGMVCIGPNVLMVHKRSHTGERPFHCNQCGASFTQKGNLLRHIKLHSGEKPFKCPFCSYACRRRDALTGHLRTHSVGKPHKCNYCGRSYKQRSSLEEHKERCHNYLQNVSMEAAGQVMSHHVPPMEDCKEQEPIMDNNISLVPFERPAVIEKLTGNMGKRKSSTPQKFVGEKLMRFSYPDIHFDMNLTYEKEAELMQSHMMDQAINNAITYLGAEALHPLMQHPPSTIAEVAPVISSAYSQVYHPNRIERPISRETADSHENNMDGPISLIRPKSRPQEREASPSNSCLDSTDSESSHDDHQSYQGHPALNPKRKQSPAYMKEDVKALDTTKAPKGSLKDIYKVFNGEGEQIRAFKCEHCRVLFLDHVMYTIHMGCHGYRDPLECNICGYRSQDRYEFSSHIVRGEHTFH
# IKZF2, sequence (Q96SW2 whole entry): as the sequence (Q96SW2 whole entry, the tested form may be a part) above
# IKZF2, sequence (Q16531 whole entry partner): as the sequence (Q16531 whole entry partner, the tested form may be a part) above
# IKZF1, sequence (Q13422 whole entry): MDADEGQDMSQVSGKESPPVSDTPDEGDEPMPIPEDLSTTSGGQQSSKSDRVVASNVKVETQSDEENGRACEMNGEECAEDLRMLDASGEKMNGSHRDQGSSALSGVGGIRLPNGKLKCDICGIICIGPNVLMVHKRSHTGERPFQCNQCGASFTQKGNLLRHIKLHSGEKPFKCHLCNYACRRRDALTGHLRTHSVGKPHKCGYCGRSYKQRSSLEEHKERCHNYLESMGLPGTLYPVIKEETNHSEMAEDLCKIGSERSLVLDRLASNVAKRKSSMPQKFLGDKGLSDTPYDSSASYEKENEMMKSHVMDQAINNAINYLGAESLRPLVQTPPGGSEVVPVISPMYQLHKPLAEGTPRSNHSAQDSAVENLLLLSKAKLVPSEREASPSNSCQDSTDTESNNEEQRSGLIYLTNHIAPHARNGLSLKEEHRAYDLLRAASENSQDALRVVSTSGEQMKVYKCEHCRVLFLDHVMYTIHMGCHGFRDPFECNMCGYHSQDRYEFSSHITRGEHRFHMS
# IKZF1, sequence (Q96SW2 whole entry): as the sequence (Q96SW2 whole entry, the tested form may be a part) above
# IKZF1, sequence (Q16531 whole entry partner): as the sequence (Q16531 whole entry partner, the tested form may be a part) above
Compound,DC50 (IKZF1) [nM],DC50 (GSPT1) [nM],inhibition at 10 µM (IKZF2) [%],DC50 (IKZF2) [nM]
"CC(c1ccccc1)N1CCC(c2ccc3c(c2)CN(C2CCC(=O)NC2=O)C3=O)CC1 (racemic) [Compound I-62, 3-(1-oxo-5-(1-(1-phenylethyl)piperidin-4-yl)isoindolin-2-yl)piperidine-2,6-dione]",> 50000,> 30000,75,7
"O=C1CCC(N2Cc3cc(C4CCN(Cc5ccc6ccc(F)cc6n5)CC4)ccc3C2=O)C(=O)N1 (stereo not shown) [Compound I-232, 3-(5-(1-((7-fluoroquinolin-2-yl)methyl)piperidin-4-yl)-1-oxoisoindolin-2-yl)piperidine-2,6-dione]",> 30000,> 30000,70,18
"O=C1CCC(N2Cc3cc([C@@H]4CCCNCC4)ccc3C2=O)C(=O)N1 (single isomer, unassigned) [Compound I-166, 3-(5-(azepan-4-yl)-1-oxoisoindolin-2-yl)piperidine-2,6-dione]",> 50000,> 50000,25,–
"CN(C)S(=O)(=O)c1cccc(CN2CCC(c3ccc4c(c3)CN(C3CCC(=O)NC3=O)C4=O)CC2)c1 (stereo not shown) [Compound I-216, 3-((4-(2-(2,6-dioxopiperidin-3-yl)-1-oxoisoindolin-5-yl)piperidin-1-yl)methyl)-N,N-dimethylbenzenesulfonamide]",220,> 30000,80,10
"C[C@H]1CC(c2ccc3c(c2)CN(C2CCC(=O)NC2=O)C3=O)CCN1Cc1ccccc1 (stereo partly drawn) [Compound I-160, 3-(5-((2S)-1-benzyl-2-methylpiperidin-4-yl)-1-oxoisoindolin-2-yl)piperidine-2,6-dione]",> 50000,> 50000,50,18
"O=C1CCC(N2Cc3cc(C4CCN(Cc5cc(F)c(O)c(F)c5)CC4)ccc3C2=O)C(=O)N1 (stereo not shown) [Compound I-156, 3-(5-(1-(3,5-difluoro-4-hydroxybenzyl)piperidin-4-yl)-1-oxoisoindolin-2-yl)piperidine-2,6-dione]",> 50000,> 50000,70,22
"O=C1CCC(N2Cc3cc(C4CCN(Cc5ccc6scnc6c5)CC4)ccc3C2=O)C(=O)N1 (stereo not shown) [Compound I-130, 3-(5-(1-(benzo[d]thiazol-5-ylmethyl)piperidin-4-yl)-1-oxoisoindolin-2-yl)piperidine-2,6-dione]",> 30000,> 30000,80,8
"O=C1CCC(N2Cc3cc(C4CCN(Cc5ccc(-n6cccn6)cc5)CC4)ccc3C2=O)C(=O)N1 (stereo not shown) [Compound I-91, 3-(5-(1-(4-(1H-pyrazol-1-yl)benzyl)piperidin-4-yl)-1-oxoisoindolin-2-yl)piperidine-2,6-dione]",> 30000,> 30000,75,18
"CN(C)S(=O)(=O)c1ccc(CN2CCC(c3ccc4c(c3)CN(C3CCC(=O)NC3=O)C4=O)CC2)cc1 (stereo not shown) [Compound I-237, 4-((4-(2-(2,6-dioxopiperidin-3-yl)-1-oxoisoindolin-5-yl)piperidin-1-yl)methyl)-N,N-dimethylbenzenesulfonamide]",> 30000,> 30000,70,20
"CC(C)(C)c1nc(CN2CCC(c3ccc4c(c3)CN(C3CCC(=O)NC3=O)C4=O)CC2)cs1 (stereo not shown) [Compound I-143, 3-(5-(1-((2-(tert-butyl)thiazol-4-yl)methyl)piperidin-4-yl)-1-oxoisoindolin-2-yl)piperidine-2,6-dione]",> 30000,> 30000,60,26
"O=C1CCC(N2Cc3cc(C4CCN(Cc5ccc(Cl)cc5Cl)CC4)ccc3C2=O)C(=O)N1 (stereo not shown) [Compound I-113, 3-(5-(1-(2,4-dichlorobenzyl)piperidin-4-yl)-1-oxoisoindolin-2-yl)piperidine-2,6-dione]",> 30000,> 30000,50,15
